From US20080311126A1, “Antisense Oligonucleotides Directed to Ribonucleotide Reducatase R2 and Uses Thereof in Combination Therapies for the Treatment of Cancer” (Genesense Technologies, Inc, priority 2004, published 2008)
Oligonucleotides are written 5' to 3', each unit as a sugar letter and its base; * is a phosphorothioate linkage, no mark a phosphodiester; rarer units and linkages stand in square brackets, end groups in braces. Plain capitals give the bases only. d = 2'-deoxy (DNA)

Legend:
Type in all cases: cell-based, human
[1] = test system: A549 lung cell carcinoma; assay: Relative colony forming efficiency (Example 17, Table 13); settings: averages of 2-8 determinations
Outline: (§1)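 0.2 μM oligo (default) + 2.5 μg Lipofectin, 4 h exposure; methylene blue stain, colonies counted; vs lipofectin-alone control, reported as % inhibition.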

[2] = test system: MDA PaCa-2 pancreatic cell carcinoma; assay: as above; settings: MIA PaCa-2 pancreatic cell carcinoma; averages of 2-8 determinations
Outline: as §1

[3] = test system: HCT116 colon cell carcinoma; assay: as above; settings: averages of 2-8 determinations
Outline: as §1

[4] = test system: HepG2 hepatocellular carcinoma; assay: as above; settings: averages of 2-8 determinations
Outline: as §1

[5] = test system: PC-3 prostrate cell adenocarcinoma; assay: as above; settings: averages of 2-8 determinations
Outline: as §1

[6] = test system: MDA-MB-231 breast cell adenocarcinoma; assay: as above; settings: averages of 2-8 determinations
Outline: as §1

[7] = test system: T24 bladder cell carcinoma; assay: as above; settings: averages of 2-8 determinations
Outline: as §1

[8] = test system: Hela S3 cells; assay: Relative colony forming efficiency, lipofectin +/- oligonucleotide 4 hours; settings: Hela S3 cervix carcinoma cells; averages of 2-8 determinations
Procedure: Colony forming efficiency was determined using standard protocols. Briefly, the cells were cultured for 24 hours at 37° C. in growth medium with 10% fetal bovine serum. The cells were washed in 5 ml phosphate buffered saline, pH 7.2, once prior to lipofectin +/−oligonucleotide treatment.
The test oligonucleotides were added to cell cultures in the presence of 2.5 μg of DOTMA/DOPE (Lipofectin; Life Technologies, Inc.) for four hours. The oligonucleotide was tested at 0.2 μM unless otherwise indicated. Controls were the cultures treated with lipofectin but without the oligonucleotide. After 4 hours the medium containing the oligonucleotide was removed and washed with 5 ml of growth medium. The cells were then cultured in growth medium containing 10% fetal bovine serum for seven to ten days. Surviving cells were visualized by methylene blue staining, and colonies were scored. In some experiments cell aliquots were removed from the culture and viability was determined using the trypan blue exclusion test. Results were analyzed as percent of surviving cells compared to control cells.
AS-II-336-20 was tested for the ability to inhibit the proliferation of human tumour cells (Hela). Hela S3 cells (American Type Culture Collection, Rockville, Md., ATCC), and a Hela cell line (Hela 1 mM) previously selected for resistance to the antitumour agent, hydroxyurea, were tested (see results in Table 11). Two experiments were undertaken with Hela S3 cells. […] The same experiment was repeated with the Hela 1 mM cell line and with varying concentrations of the antisense construct AS-II-336-20 (see results in Table 11) with similar results, […] was an effective concentration for inhibiting colony formation.
To test the antisense effects of many of these sequences as phosphorthioate deoxyribonucleotides, they were examined in relative colony forming experiments conducted as described in Example 16 with a series of human tumour cell lines. The results (shown as % inhibition of colony forming ability) obtained with cancer cells derived from the bladder, breast, lung, colon, pancreas, prostate, liver and cervix, are shown in Table 13. The specific cell lines employed are as follows:
T24=bladder cell carcinoma HCT116=colon cell carcinoma A549=lung cell carcinoma MDA-MB-231=breast cell adenocarcinoma […]=pancreatic cell carcinoma PC-3=prostrate cell adenocarcinoma HepG2=hepatocellular carcinoma HeLaS3=cells isolated from a carcinoma of the cervix T-47D=breast ductal carcinoma H596=lung adenosquamous carcinoma cells Colo320=colon cell adenocarcinoma

[9] = test system: T-47D breast ductal carcinoma; assay: Relative colony forming efficiency (Example 17, Table 13); settings: averages of 2-8 determinations
Outline: as §1

| Sequence | Reduced relative colony forming efficiency, A549 (% inhibition of colony forming ability) [1] | Reduced relative colony forming efficiency, MIA PaCa-2 (% inhibition of colony forming ability) [2] | Reduced relative colony forming efficiency, HCT116 (% inhibition of colony forming ability) [3] | Reduced relative colony forming efficiency, HepG2 (% inhibition of colony forming ability) [4] | Reduced relative colony forming efficiency, PC-3 (% inhibition of colony forming ability) [5] | Reduced relative colony forming efficiency, MDA-MB-231 (% inhibition of colony forming ability) [6] | Reduced relative colony forming efficiency, T24 (% inhibition of colony forming ability) [7] | Reduced relative colony forming efficiency, Hela S3 (% inhibition of colony forming ability) [8] | Reduced relative colony forming efficiency, T-47D (% inhibition of colony forming ability) [9] |
| --- | --- | --- | --- | --- | --- | --- | --- | --- | --- |
| CTGCTTTAGTTTTCGGCTCC (antisense dC*dT*dG*dC*dT*dT*dT*dA*dG*dT*dT*dT*dT*dC*dG*dG*dC*dT*dC*dC) [AS-II-362-20] | 61.81% | 34.2% | 62.81% | 95.78% | 75.78% | 85.83% | 89.63% | 45.69% | – |
| CGCGCTCCCGGCCC (antisense dC*dG*dC*dG*dC*dT*dC*dC*dC*dG*dG*dC*dC*dC) [AS-II-79-14] | 79.17% | 38.89% | 45.56% | 70.81% | 85.32% | 48.6% | 38.4% | 28.64% | 70.81% |
| CCTCCTCGGCGGTCCAAAAG (antisense dC*dC*dT*dC*dC*dT*dC*dG*dG*dC*dG*dG*dT*dC*dC*dA*dA*dA*dA*dG) [AS-II-494-20] | 33.85% | 25.31% | 50.28% | 93.37% | 30.6% | 54.78% | 54.23% | 43.62% | – |
| ACCCCTCACTCCAGCAGCCT (antisense dA*dC*dC*dC*dC*dT*dC*dA*dC*dT*dC*dC*dA*dG*dC*dA*dG*dC*dC*dT) [AS-II-110-20] | 89.38% | 47.51% | 71.69% | 97.14% | 92.06% | 90.92% | 87.78% | 53.98% | – |
| GTCTCTCCTCCGATGGTTTG [AS-II-1040-20] | 85.82% | 43.52% | 70.08% | 77.78% | 40.08% | – | 59.49% | 71.87% | 64.76% |
| TCCTCGGCGGTCCAAA (antisense dT*dC*dC*dT*dC*dG*dG*dC*dG*dG*dT*dC*dC*dA*dA*dA) [AS-II-496-16] | 74.45% | – | 70.85% | 54.8% | 88.84% | 45.8% | 78.48% | 52.21% | 10.79% |
| GCTCCCACATATGAAAACTC (antisense dG*dC*dT*dC*dC*dC*dA*dC*dA*dT*dA*dT*dG*dA*dA*dA*dA*dC*dT*dC) [AS-II-2229A-20] | 69.72% | 33.61% | 93.01% | 73.26% | 89.58% | – | 50.34% | 63.15% | 58.82% |
| CCCAGTTCCAGCATAAGTCT (antisense dC*dC*dC*dA*dG*dT*dT*dC*dC*dA*dG*dC*dA*dT*dA*dA*dG*dT*dC*dT) [AS-II-1182-20] | 80.06% | 84.72% | 88.13% | 92.23% | 92.76% | – | 94.51% | 90.61% | 92.41% |
| TTCTCTTACTCTCTCCTCCG (antisense dT*dT*dC*dT*dC*dT*dT*dA*dC*dT*dC*dT*dC*dT*dC*dC*dT*dC*dC*dG) [AS-II-1048-20] | 65.67% | 33.4% | 42.63% | 77.56% | 84.38% | 66.88% | 40.32% | 39.19% | – |
